Experimental data published in US20190335746A1, “ANTIMICROBIAL GAS RELEASING AGENTS AND SYSTEMS AND METHODS FOR USING THE SAME” (priority 2016, published 2019).

Test: Spiking the product matrices with ClO2 gas
Settings: product matrices spiked with ClO2 gas
Text: Headspace samples underwent a colorimetric analysis for ClO2 gas.

## [O][Cl+][O-] [ClO2 gas, chlorine dioxide]
  chlorine dioxide in the residual juice and tomato samples after spiking: no detectable chlorine dioxide
